Test results taken from US20240382509A1, “Cannabinoids C- and O-glycosides possessing anti-proliferative and anti-metastatic properties and process for preparation thereof” (Council of Scientific and Industrial Research, priority 2021, published 2024).

System: HCT-116 cells
Assay: MTT cell viability assay, HCT-116
Format: cell-based
Details: Homo sapiens, HCT-116, 48 h, read-out: Cytotoxicity (IC50) HCT-116, MTT, 48 h; colorectal adenocarcinoma cells
Description: Cell viability assay: The cell viability was determined by the standard MTT assay method. Briefly, Panc-1, HCT-116, A549, PC3, MIAPaca-2, HT-29, MDA-MB-231, MCF7 cells, and fR2cells were seeded in 96 well tissue culture plates (Nunc) at a density of 4×10^3 cells per well and treated with varying concentrations of the test compounds in triplicates. DMSO was taken as a vehicle, and its final concentration was maintained at 0.2% in the culture medium. Doxorubicin was employed as a positive control. After 44 h of incubation, MTT dye solution was added into the medium, and cells were incubated for another 4 h at 37° C. in 5% CO2. The amount of colored formazan derivatives formed was measured by taking optical density (OD) using a microplate reader (TECAN, Infinite M200 Pro) at 570 nm, and the percentage of cell viability was calculated. The IC50 values were calculated using GraphPad Prism software (Version 5.0).

In the case of `CCCCCc1cc(O[C@@H]2OC(CO)[C@@H](O)C(O)C2O)c2c(c1)OC(C)(C)[C@@H]1CCC(C)=C[C@@H]21` (stereo partly drawn) [Compound 2a, Δ^9-tetrahydrocannabinol-1-O-β-D-glucopyranoside], the IC50 is reported as 2100 nM.
